Reference: PubChem BioAssay AID248 (DTP/NCI, 2004)
Values joined by “and” are separate entries in the source; they are usually repeats but may differ in a detail not shown here. Identical values can stand only once. Inconclusive results and toxic doses are left out.

System: L1210 leukemia ip in BDF1 mice, survival T/C
Assay: NCI In Vivo Anticancer Drug Screen. Data for tumor model L1210 Leukemia (intraperitoneal) in B6D2F1 (BDF1) mice
Conditions: endpoint: mean survival time, higher = longer survival
Procedure, shortened: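 Survival endpoint. Drug-treated group vs vehicle group, expressed as T divided by C. Tumor passaged by transplantation.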

With O=NN(CCCl)C(=O)NC1CC2CCC1C2 (centres undefined) the T/C (dose: 1.04 mg/kg/injection, schedule: Q#B X Z (ip), vehicle: other) was 96 % of control, the T/C (dose: 2.0 mg/kg/injection, schedule: Q01DX001 (ip), vehicle: carboxymethylcellulose (CMC)) was 112 % of control and the T/C (dose: 3.1 mg/kg/injection, schedule: Q01DX015 (ip), vehicle: other) was 114 % of control. For the same compound, the T/C (dose: 3.12 mg/kg/injection, schedule: Q03HX008 (oral), vehicle: carboxymethylcellulose (CMC)) was 188 % of control, the T/C (dose: 3.12 mg/kg/injection, schedule: Q03HX024 (oral), vehicle: carboxymethylcellulose (CMC)) was 261 % of control and the T/C (dose: 4.0 mg/kg/injection, schedule: Q01DX001 (ip), vehicle: carboxymethylcellulose (CMC)) was 115 % of control. The T/C (dose: 4.9 mg/kg/injection, schedule: Q01DX015 (ip), vehicle: other) was 210 % of control, the T/C (dose: 6.25 mg/kg/injection, schedule: Q01DX001 (im), vehicle: other) was 112 % of control and the T/C (dose: 6.25 mg/kg/injection, schedule: Q01DX001 (ip), vehicle: other) was 109 % of control and 118 % of control. For the same compound, the T/C (dose: 6.25 mg/kg/injection, schedule: Q01DX001 (ip), vehicle: saline) was 98 % of control and 101 % of control, the T/C (dose: 6.25 mg/kg/injection, schedule: Q01DX001 (iv), vehicle: other) was 105 % of control and the T/C (dose: 6.25 mg/kg/injection, schedule: Q01DX001 (oral), vehicle: other) was 100 % of control. The T/C (dose: 6.25 mg/kg/injection, schedule: Q01DX001 (sc), vehicle: other) was 114 % of control, the T/C (dose: 6.25 mg/kg/injection, schedule: Q03DX Z (ip), vehicle: other) was 156 % of control and the T/C (dose: 6.25 mg/kg/injection, schedule: Q03HX008 (oral), vehicle: carboxymethylcellulose (CMC)) was 188 % of control. The T/C (dose: 6.25 mg/kg/injection, schedule: Q07DX Z (ip), vehicle: other) was 121 % of control, the T/C (dose: 8.0 mg/kg/injection, schedule: Q01DX001 (ip), vehicle: carboxymethylcellulose (CMC)) was 124 % of control and the T/C (dose: 8.0 mg/kg/injection, schedule: Q01DX009 (ip), vehicle: carboxymethylcellulose (CMC)) was 227 % of control. For the same compound, the T/C (dose: 8.0 mg/kg/injection, schedule: Q01DX009 (oral), vehicle: carboxymethylcellulose (CMC)) was 227 % of control, the T/C (dose: 8.0 mg/kg/injection, schedule: Q04DX003 (ip), vehicle: carboxymethylcellulose (CMC)) was 150 % of control and the T/C (dose: 8.33 mg/kg/injection, schedule: Q#B X Z (ip), vehicle: other) was 105 % of control. For the same compound, the T/C (dose: 9.6 mg/kg/injection, schedule: Q## X032 (ip), vehicle: other) was 150 % of control, the T/C (dose: 12.0 mg/kg/injection, schedule: Q01DX001 (ip), vehicle: carboxymethylcellulose (CMC)) was 124 % of control and the T/C (dose: 12.5 mg/kg/injection, schedule: Q01DX001 (ip), vehicle: other) was 150 % of control. For the same compound, the T/C (dose: 12.5 mg/kg/injection, schedule: Q01DX001 (ip), vehicle: saline) was 103 % of control and 106 % of control, the T/C (dose: 12.5 mg/kg/injection, schedule: Q01DX001 (sc), vehicle: other) was 151 % of control and the T/C (dose: 12.5 mg/kg/injection, schedule: Q03DX Z (ip), vehicle: other) was 235 % of control. The T/C (dose: 12.5 mg/kg/injection, schedule: Q04DX003 (oral), vehicle: carboxymethylcellulose (CMC)) was 177 % of control, the T/C (dose: 12.5 mg/kg/injection, schedule: Q07DX Z (ip), vehicle: other) was 179 % of control and the T/C (dose: 14.5 mg/kg/injection, schedule: Q## X001 (ip), vehicle: other) was 172 % of control. The T/C (dose: 15.0 mg/kg/injection, schedule: Q## X032 (ip), vehicle: other) was 158 % of control, the T/C (dose: 16.0 mg/kg/injection, schedule: Q01DX001 (ip), vehicle: carboxymethylcellulose (CMC)) was 179 % of control and the T/C (dose: 16.0 mg/kg/injection, schedule: Q01DX015 (ip), vehicle: other) was 261 % of control. For the same compound, the T/C (dose: 16.0 mg/kg/injection, schedule: Q04DX003 (ip), vehicle: carboxymethylcellulose (CMC)) was 193 % of control, the T/C (dose: 25.0 mg/kg/injection, schedule: Q01DX001 (im), vehicle: other) was 214 % of control and the T/C (dose: 25.0 mg/kg/injection, schedule: Q01DX001 (ip), vehicle: carboxymethylcellulose (CMC)) was 196 % of control. The T/C (dose: 25.0 mg/kg/injection, schedule: Q01DX001 (ip), vehicle: other) was 220 % of control, the T/C (dose: 25.0 mg/kg/injection, schedule: Q01DX001 (oral), vehicle: other) was 210 % of control and the T/C (dose: 25.0 mg/kg/injection, schedule: Q01DX001 (sc), vehicle: other) was 227 % of control. For the same compound, the T/C (dose: 25.0 mg/kg/injection, schedule: Q03HX008 (ip), vehicle: carboxymethylcellulose (CMC)) was 107 % of control, the T/C (dose: 25.0 mg/kg/injection, schedule: Q03HX008 (oral), vehicle: carboxymethylcellulose (CMC)) was 155 % of control and the T/C (dose: 25.0 mg/kg/injection, schedule: Q03HX024 (oral), vehicle: carboxymethylcellulose (CMC)) was 150 % of control. The T/C (dose: 25.0 mg/kg/injection, schedule: Q03HX040 (ip), vehicle: carboxymethylcellulose (CMC)) was 114 % of control, the T/C (dose: 25.0 mg/kg/injection, schedule: Q04DX005 (ip), vehicle: carboxymethylcellulose (CMC)) was 186 % of control and the T/C (dose: 26.0 mg/kg/injection, schedule: Q01DX001 (ip), vehicle: carboxymethylcellulose (CMC)) was 162 % of control. The T/C (dose: 29.0 mg/kg/injection, schedule: Q01DX001 (ip), vehicle: other) was 180 % of control and 240 % of control, the T/C (dose: 29.25 mg/kg/injection, schedule: Q01DX001 (oral), vehicle: other) was 156 % of control and 160 % of control and the T/C (dose: 29.25 mg/kg/injection, schedule: Q## X001 (oral), vehicle: other) was 196 % of control. The T/C (dose: 30.0 mg/kg/injection, schedule: Q01DX001 (oral), vehicle: other) was 229 % of control, the T/C (dose: 32.0 mg/kg/injection, schedule: Q01DX009 (ip), vehicle: carboxymethylcellulose (CMC)) was 196 % of control and the T/C (dose: 32.0 mg/kg/injection, schedule: Q01DX009 (oral), vehicle: carboxymethylcellulose (CMC)) was 187 % of control. For the same compound, the T/C (dose: 32.4 mg/kg/injection, schedule: Q01DX001 (ip), vehicle: carboxymethylcellulose (CMC)) was 109 % of control, the T/C (dose: 35.0 mg/kg/injection, schedule: Q## X032 (ip), vehicle: other) was 158 % of control and the T/C (dose: 40.0 mg/kg/injection, schedule: Q01DX001 (ip), vehicle: carboxymethylcellulose (CMC)) was 191 % of control. The T/C (dose: 50.0 mg/kg/injection, schedule: Q01DX001 (ip), vehicle: saline) was 242 % of control, the T/C (dose: 50.0 mg/kg/injection, schedule: Q01DX009 (oral), vehicle: carboxymethylcellulose (CMC)) was 200 % of control and the T/C (dose: 50.0 mg/kg/injection, schedule: Q04DX005 (ip), vehicle: carboxymethylcellulose (CMC)) was 230 % of control. The T/C (dose: 50.0 mg/kg/injection, schedule: Q07DX Z (ip), vehicle: other) was 223 % of control, the T/C (dose: 50.0 mg/kg/injection, schedule: Q## X009 (ip), vehicle: carboxymethylcellulose (CMC)) was 190 % of control and the T/C (dose: 53.0 mg/kg/injection, schedule: Q## X032 (ip), vehicle: other) was 121 % of control. For the same compound, the T/C (dose: 54.0 mg/kg/injection, schedule: Q01DX001 (ip), vehicle: carboxymethylcellulose (CMC)) was 115 % of control, the T/C (dose: 64.0 mg/kg/injection, schedule: Q01DX005 (ip), vehicle: carboxymethylcellulose (CMC)) was 119 % of control and the T/C (dose: 64.0 mg/kg/injection, schedule: Q01DX009 (ip), vehicle: carboxymethylcellulose (CMC)) was 123 % of control. For the same compound, the T/C (dose: 64.0 mg/kg/injection, schedule: Q01DX009 (oral), vehicle: carboxymethylcellulose (CMC)) was 106 % of control, the T/C (dose: 64.0 mg/kg/injection, schedule: Q04DX003 (ip), vehicle: carboxymethylcellulose (CMC)) was 118 % of control and the T/C (dose: 66.0 mg/kg/injection, schedule: Q## X004 (ip), vehicle: other) was 191 % of control. For the same compound, the T/C (dose: 88.0 mg/kg/injection, schedule: Q01DX001 (oral), vehicle: other) was 167 % of control, the T/C (dose: 90.0 mg/kg/injection, schedule: Q01DX001 (ip), vehicle: carboxymethylcellulose (CMC)) was 242 % of control and the T/C (dose: 100.0 mg/kg/injection, schedule: Q01DX001 (ip), vehicle: carboxymethylcellulose (CMC)) was 227 % of control. For the same compound, the T/C (dose: 100.0 mg/kg/injection, schedule: Q01DX001 (ip), vehicle: other) was 225 % of control, the T/C (dose: 100.0 mg/kg/injection, schedule: Q01DX001 (oral), vehicle: carboxymethylcellulose (CMC)) was 245 % of control and the T/C (dose: 100.0 mg/kg/injection, schedule: Q01DX001 (oral), vehicle: other) was 190 % of control. The T/C (dose: 100.0 mg/kg/injection, schedule: Q01DX001 (sc), vehicle: other) was 221 % of control, the T/C (dose: 100.0 mg/kg/injection, schedule: Q01DX005 (ip), vehicle: carboxymethylcellulose (CMC)) was 108 % of control and the T/C (dose: 100.0 mg/kg/injection, schedule: Q01DX017 (ip), vehicle: carboxymethylcellulose (CMC)) was 118 % of control. The T/C (dose: 100.0 mg/kg/injection, schedule: Q04DX003 (oral), vehicle: carboxymethylcellulose (CMC)) was 194 % of control, the T/C (dose: 100.0 mg/kg/injection, schedule: Q## X006 (oral), vehicle: carboxymethylcellulose (CMC)) was 161 % of control and the T/C (dose: 100.0 mg/kg/injection, schedule: Q## X009 (ip), vehicle: carboxymethylcellulose (CMC)) was 111 % of control. The T/C (dose: 117.0 mg/kg/injection, schedule: Q01DX001 (oral), vehicle: other) was 105 % of control, the T/C (dose: 117.0 mg/kg/injection, schedule: Q## X001 (oral), vehicle: other) was 122 % of control and the T/C (dose: 128.0 mg/kg/injection, schedule: Q01DX001 (ip), vehicle: carboxymethylcellulose (CMC)) was 104 % of control. The T/C (dose: 128.0 mg/kg/injection, schedule: Q01DX001 (oral), vehicle: carboxymethylcellulose (CMC)) was 245 % of control, the T/C (dose: 128.0 mg/kg/injection, schedule: Q01DX005 (ip), vehicle: carboxymethylcellulose (CMC)) was 93 % of control and the T/C (dose: 187.0 mg/kg/injection, schedule: Q01DX001 (ip), vehicle: carboxymethylcellulose (CMC)) was 224 % of control. The T/C (dose: 200.0 mg/kg/injection, schedule: Q01DX001 (ip), vehicle: carboxymethylcellulose (CMC)) was 94 % of control and 111 % of control, the T/C (dose: 200.0 mg/kg/injection, schedule: Q01DX001 (ip), vehicle: other) was 118 % of control and the T/C (dose: 200.0 mg/kg/injection, schedule: Q01DX001 (iv), vehicle: other) was 183 % of control. For the same compound, the T/C (dose: 200.0 mg/kg/injection, schedule: Q01DX001 (oral), vehicle: carboxymethylcellulose (CMC)) was 122 % of control, the T/C (dose: 200.0 mg/kg/injection, schedule: Q04DX005 (ip), vehicle: carboxymethylcellulose (CMC)) was 96 % of control and the T/C (dose: 256.0 mg/kg/injection, schedule: Q01DX001 (sc), vehicle: carboxymethylcellulose (CMC)) was 109 % of control. For the same compound, the T/C (dose: 400.0 mg/kg/injection, schedule: Q01DX001 (ip), vehicle: other) was 107 % of control, the T/C (dose: 125.0 micrograms/kg/injection, schedule: Q03HX024 (ip), vehicle: carboxymethylcellulose (CMC)) was 114 % of control and the T/C (dose: 250.0 micrograms/kg/injection, schedule: Q03HX024 (ip), vehicle: carboxymethylcellulose (CMC)) was 165 % of control. The T/C (dose: 2000.0 micrograms/kg/injection, schedule: Q03HX008 (ip), vehicle: carboxymethylcellulose (CMC)) was 253 % of control.
